# Source: PubChem BioAssay (NCI)
#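 In this assay, cells in 96-well plates receive the compound at five concentrations for 48 hours. Endpoints are linearly interpolated between the surrounding concentrations. GI50 = concentration required for 50% inhibition of growth. TGI: total growth inhibition.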
# Legend:
# Test in all cases: NCI tumour cell line growth inhibition, 48 h
# DU-145 prostate = system: DU-145 prostate
# OVCAR-4 ovarian = system: OVCAR-4 ovarian
# UO-31 renal = system: UO-31 renal
# SF-539 CNS = system: SF-539 CNS
# RXF 393 renal = system: RXF 393 renal
# NCI-H226 lung = system: NCI-H226 lung
# RPMI-8226 leukemia = system: RPMI-8226 leukemia
# MDA-MB-231 breast = system: MDA-MB-231 breast
# HCC-2998 colon = system: HCC-2998 colon
# MDA-MB-435 = system: MDA-MB-435
# U251 CNS = system: U251 CNS
# KM12 colon = system: KM12 colon
# MCF7 breast = system: MCF7 breast
# SF-295 CNS = system: SF-295 CNS
# HT29 colon = system: HT29 colon
# MALME-3M melanoma = system: MALME-3M melanoma
# M14 melanoma = system: M14 melanoma
# HOP-92 NSCLC = system: HOP-92 NSCLC
# TK-10 renal = system: TK-10 renal
# A549 NSCLC = system: A549 NSCLC
# HCT-116 colon = system: HCT-116 colon
# HCT-15 colon = system: HCT-15 colon
# T-47D breast = system: T-47D breast
# NCI-H522 lung = system: NCI-H522 lung
# MOLT-4 leukemia = system: MOLT-4 leukemia
# NCI-H460 lung = system: NCI-H460 lung
# K-562 leukemia = system: K-562 leukemia
# HL-60(TB) leukemia = system: HL-60(TB) leukemia
# IGROV1 ovarian = system: IGROV1 ovarian
structure (smiles),measurement,setting,value
CCOC(=O)C1=C(C)N=C2SC=C(c3ccccc3)N2[C@H]1c1cn[nH]c1-c1ccc(Cl)cc1,TGI,DU-145 prostate,18.8 µM
same,GI50,OVCAR-4 ovarian,4.66 µM
same,TGI,OVCAR-4 ovarian,16.6 µM
same,GI50,UO-31 renal,1.39 µM
same,TGI,UO-31 renal,9.53 µM
same,GI50,SF-539 CNS,5.68 µM
same,TGI,SF-539 CNS,18 µM
same,GI50,RXF 393 renal,5.32 µM
same,TGI,RXF 393 renal,19.1 µM
same,GI50,NCI-H226 lung,8.25 µM
same,TGI,NCI-H226 lung,46.1 µM
same,GI50,RPMI-8226 leukemia,2.65 µM
same,TGI,RPMI-8226 leukemia,9.39 µM
same,GI50,MDA-MB-231 breast,2.32 µM
same,TGI,MDA-MB-231 breast,7.96 µM
same,GI50,HCC-2998 colon,6.24 µM
same,TGI,HCC-2998 colon,20.4 µM
same,GI50,MDA-MB-435,4.07 µM
same,TGI,MDA-MB-435,15.2 µM
same,GI50,U251 CNS,3.8 µM
same,TGI,U251 CNS,16.4 µM
same,GI50,KM12 colon,4.69 µM
same,TGI,KM12 colon,17.5 µM
same,GI50,MCF7 breast,2.7 µM
same,TGI,MCF7 breast,13.8 µM
same,GI50,SF-295 CNS,7.96 µM
same,TGI,SF-295 CNS,22.2 µM
same,GI50,HT29 colon,4.32 µM
same,TGI,HT29 colon,13.7 µM
same,GI50,MALME-3M melanoma,1.6 µM
same,TGI,MALME-3M melanoma,3.45 µM
same,GI50,M14 melanoma,4.37 µM
same,TGI,M14 melanoma,19.2 µM
same,GI50,HOP-92 NSCLC,2.4 µM
same,TGI,HOP-92 NSCLC,8.7 µM
same,GI50,TK-10 renal,10.2 µM
same,TGI,TK-10 renal,22.2 µM
same,GI50,A549 NSCLC,6.73 µM
same,TGI,A549 NSCLC,24.7 µM
same,GI50,HCT-116 colon,3.11 µM
same,TGI,HCT-116 colon,13.3 µM
same,GI50,HCT-15 colon,3.19 µM
same,TGI,HCT-15 colon,11.7 µM
same,GI50,T-47D breast,3.13 µM
same,TGI,T-47D breast,22.4 µM
same,GI50,NCI-H522 lung,1.68 µM
same,TGI,NCI-H522 lung,3.44 µM
same,GI50,MOLT-4 leukemia,2.29 µM
same,TGI,MOLT-4 leukemia,7.41 µM
same,GI50,NCI-H460 lung,3.36 µM
same,TGI,NCI-H460 lung,12.7 µM
same,GI50,K-562 leukemia,3.67 µM
same,TGI,K-562 leukemia,23.2 µM
same,GI50,HL-60(TB) leukemia,2.85 µM
same,TGI,HL-60(TB) leukemia,7.98 µM
same,GI50,IGROV1 ovarian,2.33 µM
same,TGI,IGROV1 ovarian,7.61 µM
